The results in this text go back to US7169890B2, “Process for the production of ramoplanin-like amide derivatives” (Vicuron Pharmaceuticals Inc., priority 2002, dated 2007).

The test system of series [1] is Staphylococcus aureus Smith SA 819. In words: Murine septicaemia, Staphylococcus aureus Smith SA 819 systemic infection. The format is in vivo. Particulars: mice, i.p. infection, s.c. treatment, survival to day 7. As to the method: As an example, therapeutical effectiveness of some representative compounds of formula (Ia) in murine septicaemia caused by intraperitoneally administered Staphylococcus aureus Smith SA 819 was evaluated in comparison with ramoplanin. Vancomycin was chosen as reference drug for the evaluation of in vivo antiinfective activity.
Mice were infected intraperitoneally with Staphylococcus aureus Smith SA 819. Untreated animals died within 24 hours after infection. Groups of eight mice each were treated s.c. with different dose levels of ramoplanin or of each test compound, starting 10–20 min after challenge. Reference drugs was s.c. injected vancomycin.

Series [2] relates to methicillin-resistant Staphylococcus aureus SA 613. In words: Murine infection, methicillin-resistant Staphylococcus aureus SA 613. It is filed as in vivo. Particulars: mice, i.p. infection, s.c. treatment, survival to day 7. The procedure:
Mice were infected intraperitoneally with ca 10^7 CFU/mouse of Staphylococcus aureus SA 613. Untreated animals died within 24 hours after infection. Groups of eight mice each were treated iv or s.c. with different dose levels of ramoplanin or each test compound, starting 10–20 minutes after challenge. Ramoplanin and vancomycin were used as reference drugs.

Series [3] relates to 560 Entero. faecalis VanA. Put plainly: MIC, broth microdilution NCCLS (isolated compounds or reaction solutions). It is filed as cell-based, Enterococcus faecalis. The settings on record: for MIC: 560 Entero. faecalis VanA, isolated compounds. The procedure: (§1) The antimicrobial activity in vitro of the compounds obtained according to the process of this invention was evaluated against a panel of clinical isolates of methicillin-sensitive, methicillin-resistant and vancomycin-intermedie Staphylococcus aureus, Van-S and Van-A Enterococcus faecium and faecalis, Streptococcus pyogenes, Escherichiae coli and Candida albicans.
(§2) MICs were performed using the broth microdilution methodology following the NCCLS procedure (NCCLS Document M7-A4 Vol.17 No.2 January 1997) in presence of 0.02% albumine bovine serum with inocula of approximately 5×10^5 cfu/mL. The media employed included cation-adjusted Mueller-Hinton (MH) broth (Difco Laboratories, Detroit, Mich., USA) supplemented or not with 30% (v/v) bovine serum. Tests were read after 24 h incubation at 37° C.
(§3) A further set of experiments for measuring the antimicrobial activity in vitro of a series of compounds of formula (Ia) in comparison with the known compound 1 was carried out directly on the solutions deriving from the reaction of the starting acid of formula (IV) with the deacyl ramoplanin of formula (III) according to the method A described in the Examples.
(§4) The reaction solutions (resulting from the addition of 1M hydrochloric acid as described in Method A) were diluted at 6000 mcg/ml by adding 0.1% peptone Difco Laboratories, (Detroit, Mich., USA) plus 0.9% NaCl (PBS). The resulting solutions were diluted with water at the desired concentration to perform the test that was then carried out in the same way described for the isolated compounds reported in Table 2.
A general note: Dilution methods test growth across graded concentrations, often in twofold steps.

Another series relates to 819 Staph. aureus Smith. Described as above. The format is cell-based, Staphylococcus aureus. The settings on record: for MIC: 819 Staph. aureus Smith, isolated compounds. As to the method:
as §1, §2, §3, §4

The test system of series [4] is 3797 Staph. aureus clin. isolate VISA Met-R. The description is as above. The format is cell-based, Staphylococcus aureus. Particulars: for MIC: 3797 Staph. aureus clin. isolate VISA Met-R, isolated compounds. The procedure:
as §1, §2, §3, §4

Series [5] deals with 613 Staph. aureus clin. isolate Met-R. The series is described as above. It is filed as cell-based, Staphylococcus aureus. Particulars: for MIC: 613 Staph. aureus clin. isolate Met-R, isolated compounds. The procedure: as §1, §2, §3, §4
The test system of series [6] is 3798 Staph. aureus clin. isolate VISA. The series is described as above. Particulars: for MIC: 3798 Staph. aureus clin. isolate VISA, isolated compounds. It is filed as cell-based, Staphylococcus aureus. As to the method: as §1, §2, §3, §4
For a further series, the system named is 49 Strep. pyogenes C203. The description is as above. It is filed as cell-based, Streptococcus pyogenes. The settings on record: for MIC: 49 Strep. pyogenes C203, isolated compounds. As to the method: as §1, §2, §3, §4
For the next series, the system named is 47 E coli SKF12140. The series is described as above. It is filed as cell-based, Escherichiae coli. Particulars: for MIC: 47 E coli SKF12140, isolated compounds. As to the method:
as §1, §2, §3, §4

Series [7] has as its system 569 Entero. faecium clin. isolate Van-A. The series is described as above. The format is cell-based, Enterococcus faecium. Particulars: for MIC: 569 Entero. faecium clin. isolate Van-A, isolated compounds. The procedure: as §1, §2, §3, §4
For series [8], the system named is blood cells. In words: Haemolytic potential on blood cells (isolated compounds). The format is cell-based, rats. As to the method: The ramoplanin-like amide derivatives were dissolved at 40.000 mcg/ml in dimethyl sulfoxide (DMSO) and then diluted 1:5 in 0.1% peptone Difco Laboratories, (Detroit, Mich., USA) plus 0.9% NaCl (PBS).
(§5) Whole blood sample was obtained from the dorsal aorta of rats and diluted 1:100 in PBS before the test.
Group 2—PBS as physiologic haemolysis control
Group 3—saponin (Sigma), solution at 3% in distilled water, as 100% haemolysis control.
(§6) The test groups were diluted 1:5 in blood cells and incubated in water bath at 37° C. for 45 minutes.
(§7) After the incubation time the samples were centrifuged at 2500–3000 g for 10 minutes, and 0.1 ml of each supernatant was diluted in 900 mcl of Drabkin's reagent (Sigma).
(§8) The optical density (OD) of the samples was measured at 540 nm versus a blank preparation of Drabkin's reagent plus 0.1 ml of PBS.
The test was performed in triplicate.
(§9) The percentage of haemolysis was calculate using the formula Δx/Δt×100=% of haemolysis
Δx=mean value of OD540 for each concentration tested (GROUP 1–2)
Δt=mean value of OD540 for 100% haemolysis control (GROUP 3).
(§10) The haemolysis was considered significant when exceeding at least 3 times the haemolytic value of blank control (GROUP 2).

For series [9], the system named is 145 Candida albicans SKF2270. Put plainly: MIC, broth microdilution NCCLS (isolated compounds or reaction solutions). It is filed as cell-based. The settings on record: for MIC: 145 Candida albicans SKF2270, isolated compounds. The procedure: as §1, §2, §3, §4
For series [10], the system named is 559 Entero. faecalis (isogenic of L 560). The description is as above. It is filed as cell-based, Enterococcus faecalis. As to the method:
as §1, §2, §3, §4

Series [11] has as its system blood cells. In words: Haemolytic effect (reaction solutions). It is filed as cell-based, rats. The procedure:
as §5, §6, §7, §8, §9, §10
A further set of experiments for measuring the haemolytic effect of a series of compounds of formula (Ia) in comparison with the known compound 1 was carried out directly on the solutions deriving from the reaction of the starting acid of formula (IV) with the deacyl ramoplanin of formula (III) according to the method A described in the Examples.
The reaction solutions (resulting from the addition of 1M hydrochloric acid as described in Method A) were diluted at 1200 mcg/ml by adding 0.1% peptone Difco Laboratories, (Detroit, Mich., USA) plus 0.9% NaCl (PBS).

Series [12] concerns 568 Entero. faecium (isogenic of L569). In words: MIC, broth microdilution NCCLS (isolated compounds or reaction solutions). The format is cell-based, Enterococcus faecium. As to the method:
as §1, §2, §3, §4

[13] abbreviates: reaction solutions, +30% bovine serum.

Where only a bound is given, the exact number is not on record here.

With `CN[C@H](CC(C)C)C(=O)N[C@H]1C(=O)N[C@@H](CC(N)=O)C(=O)N[C@H]2C(=O)N[C@H]3C(=O)N[C@H](C(=O)N[C@H](C(=O)O)c4cc(O)cc(O)c4-c4cc3ccc4O)[C@H](O)c3ccc(c(Cl)c3)Oc3cc2cc(c3O[C@@H]2O[C@H](CO)[C@@H](O)[C@H](O)[C@H]2O[C@H]2C[C@](C)(N)[C@H](O)[C@H](C)O2)Oc2ccc(cc2Cl)[C@H]1O` [Vancomycin], the ED50 was determined as 0.64 mg/kg/dose in series [1] and 8 mg/kg/dose in [2].
ramoplanin factor A1 [Compound 35]: the MIC (commonly the lowest concentration that inhibits growth of the organism) is 0.5 µg/mL in series [3] (+30% bovine serum); less than 0.125 µg/mL in series [3]; 0.5 µg/mL in the series on 819 Staph. aureus Smith (+30% bovine serum); less than 0.125 µg/mL in the series on 819 Staph. aureus Smith (MH broth); 1 µg/mL in [4]; less than 0.125 µg/mL in [5]. The MIC was 2 µg/mL in series [6] (+30% bovine serum); 0.5 µg/mL in [6]; less than 0.125 µg/mL against 49 Strep. pyogenes C203; more than 128 µg/mL against 47 E coli SKF12140; 1 µg/mL in series [7] (+30% bovine serum); less than 0.125 µg/mL in series [7]. In addition, the MIC in series [9] is more than 128 µg/mL. Also, in the series with blood cells [8], the “% lyis at 100 mcg/ml” value is 58.99%. For the same compound, in the series on blood cells [8], the “% lysis at 200 mcg/ml” value is 80.44%. In addition, the “% lysis at 400 mcg/ml” value in the series on blood cells [8] came to 92.82%.
As for ramoplanin factor A2 [Compound 1], the MIC in [10] (559 Entero. faecalis (isogenic of L 560), isolated compounds) was 0.06 µg/mL; in series [3] (+30% bovine serum), 2 µg/mL; in series [3] it was 0.06 µg/mL; in the series with 819 Staph. aureus Smith (+30% bovine serum), 4 µg/mL; in the series with 819 Staph. aureus Smith (MH broth), 0.125 µg/mL; in series [4] it was 2 µg/mL. Moreover, the MIC in [5] is 0.25 µg/mL; in series [6] (+30% bovine serum), 16 µg/mL; in series [6], 1 µg/mL; against 49 Strep. pyogenes C203, less than 0.03 µg/mL; in the series with 47 E coli SKF12140, more than 32 µg/mL; in series [7] (+30% bovine serum), 2 µg/mL. Moreover, the MIC in series [7] is 0.125 µg/mL; in series [9] it was more than 32 µg/mL. Further, the “MIC 559 Entero. faecalis (isogenic of L 560)” value in [10] (reaction solutions, no serum) was “≦0.125 mcg/ml”. Further, in series [3] (setting [13]), the “MIC 560 Entero. faecalis VanA +30% bovine serum” value is 2 µg/mL. Moreover, the “MIC 560 Entero. faecalis VanA” value in series [3] (reaction solutions, no serum) is recorded as “≦0.125 mcg/ml”. In the series on 819 Staph. aureus Smith (setting [13]), the “MIC 819 Staph. aureus Smith +30% bovine serum” value came out at 2 µg/mL. For the same compound, in the series on 819 Staph. aureus Smith (reaction solutions, no serum), the “MIC 819 Staph. aureus Smith” value was “≦0.125 mcg/ml”. Besides, in series [4] (reaction solutions, no serum), the “MIC 3797 Staph. aureus clin. isolate VISA Met-R” value was determined as 2 µg/mL. Moreover, the “MIC 613 Staph. aureus clin. isolate Met-R” value in series [5] (reaction solutions, no serum) is 0.25 µg/mL. In series [6] (setting [13]), the “MIC 3798 Staph. aureus clin. isolate VISA +30% bovine serum” value was determined as 8 µg/mL. The “MIC 3798 Staph. aureus clin. isolate VISA” value in series [6] (reaction solutions, no serum) came out at 1 µg/mL. Besides, the “MIC 49 Strep. pyogenes C203” value in the series on 49 Strep. pyogenes C203 (reaction solutions, no serum) was “≦0.125 mcg/ml”. Moreover, the “MIC 47 E coli SKF12140” value with 47 E coli SKF12140 (reaction solutions) is more than 128 µg/mL. Moreover, the “% lysis at 300 mcg/ml” value in the series with blood cells [11] (300 mcg/ml) was found to be 74.39%. In addition, in the series with blood cells [11] (600 mcg/m), the “% lysis at 600 mcg/m” value came to 88.87%. The “MIC 568 Entero. faecium (isogenic of L569)” value in series [12] (reaction solutions, no serum) is on record as “≦0.125 mcg/ml”. In addition, in [7] (setting [13]), the “MIC 569 Entero. faecium clin. isolate Van-A +30% bovine serum” value turned out to be 2 µg/mL. Moreover, the “MIC 569 Entero. faecium clin. isolate Van-A” value in [7] (reaction solutions, no serum) is recorded as “≦0.125 mcg/ml”. Also, in the series with blood cells [8], the “% lyis at 100 mcg/ml” value is given as 86.04%. For the same compound, in the series with blood cells [8], the “% lysis at 200 mcg/ml” value came to 100%. Moreover, the “% lysis at 400 mcg/ml” value in the series on blood cells [8] is listed as 100%. Besides, the “MIC 145 Candida albicans SKF2270” value in series [9] (reaction solutions) is more than 128 µg/mL.
As for “tetrahydroderivative of ramoplanin factor A1 [Compound 5]”, the MIC in series [3] (+30% bovine serum) stood at 2 µg/mL; in series [3], 0.06 µg/mL; against 819 Staph. aureus Smith (+30% bovine serum) it was 4 µg/mL; against 819 Staph. aureus Smith (MH broth) it was 0.25 µg/mL; in series [4] it was 4 µg/mL; in [5], 0.5 µg/mL. Also, the MIC was 2 µg/mL in series [6]; less than 0.03 µg/mL in the series with 49 Strep. pyogenes C203; more than 32 µg/mL against 47 E coli SKF12140; 0.25 µg/mL in series [12] (568 Entero. faecium (isogenic of L569), isolated compounds); 4 µg/mL in series [7] (+30% bovine serum); 0.125 µg/mL in [7]. This compound also showed an MIC in [9] of more than 32 µg/mL.
